In ChEMBL document CHEMBL5665443, “Enzyme Inhibitor Single Concentration assay results for EUbOPEN Chemogenomics Library” (2024):

Experiments:
Conditions in all cases: Compound Concentration 10.0 uM, Hit No
[1] = molecular target: T1, Endonuclease 8-like 2 (Homo sapiens) (UniProt Q969S2);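 also: fluorescence at 594 nm reports NEIL2 cutting and release of a quenched double-stranded DNA oligo substrate, reduced signal read as inhibition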
T1 sequence (whole entry): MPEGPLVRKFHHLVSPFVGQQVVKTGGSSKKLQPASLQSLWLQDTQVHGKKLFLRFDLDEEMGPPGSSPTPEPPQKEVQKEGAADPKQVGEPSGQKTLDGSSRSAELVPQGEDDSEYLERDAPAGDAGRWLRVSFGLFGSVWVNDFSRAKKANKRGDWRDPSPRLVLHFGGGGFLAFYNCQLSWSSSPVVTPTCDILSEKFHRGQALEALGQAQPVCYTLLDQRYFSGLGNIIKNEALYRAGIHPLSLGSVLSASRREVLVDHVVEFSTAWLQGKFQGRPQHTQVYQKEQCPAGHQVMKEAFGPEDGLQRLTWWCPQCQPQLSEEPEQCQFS
Description: Inhibition of NEIL2 by quantifying inhibition of NEIL2-mediated cleavage and dissociation of quenched duplex DNA oligonucleotides, measured as fluorescence at 594 nm.

[2] = molecular target: T2, Endonuclease III-like protein 1 (Homo sapiens) (UniProt P78549);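 also: enzyme assay tracking NTHL1 cutting and release of a quenched double-stranded DNA oligo substrate, read as fluorescence at 594 nm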
T2 sequence (whole entry): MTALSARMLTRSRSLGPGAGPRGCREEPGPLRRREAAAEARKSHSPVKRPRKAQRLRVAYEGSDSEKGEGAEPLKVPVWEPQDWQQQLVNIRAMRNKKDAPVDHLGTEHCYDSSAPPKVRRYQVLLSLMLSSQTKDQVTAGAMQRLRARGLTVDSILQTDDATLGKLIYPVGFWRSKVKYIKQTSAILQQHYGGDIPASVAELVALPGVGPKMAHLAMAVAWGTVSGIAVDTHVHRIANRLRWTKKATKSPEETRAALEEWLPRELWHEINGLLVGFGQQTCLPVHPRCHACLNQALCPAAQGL
Description: Inhibition of NTHL1 by quantifying inhibition of NTHL1-mediated cleavage and dissociation of quenched duplex DNA oligonucleotides, measured as fluorescence at 594 nm.

[3] = molecular target: Uracil-DNA glycosylase (Homo sapiens) (UniProt P13051);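 also: UNG excision on a quenched double-stranded DNA oligo probe, with APE1 added for strand incision and turnover, read as fluorescence at 594 nm as strands separate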
Description: Inhibition of UNG by quantifying inhibition of UNG-mediated cleavage and dissociation of quenched duplex DNA oligonucleotides, measured as fluorescence at 594 nm. To generate a functional strand incision and increase turn-over this assay is coupled to APE1.

[4] = molecular target: Endonuclease 8-like 1 (Homo sapiens) (UniProt Q96FI4);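 also: fluorescence at 594 nm from quenched duplex DNA oligonucleotides released by NEIL1 cleavage and strand separation, reported as reduction of this enzyme activity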
Description: Inhibition of NEIL1 by quantifying inhibition of NEIL1-mediated cleavage and dissociation of quenched duplex DNA oligonucleotides, measured as fluorescence at 594 nm.

[5] = molecular target: N-glycosylase/DNA lyase (Homo sapiens) (UniProt O15527);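 also: OGG1 cleavage of a quenched duplex DNA oligonucleotide, coupled to APE1 for strand incision, read as fluorescence at 594 nm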
Description: Inhibition of OGG1 by quantifying inhibition of OGG1-mediated cleavage and dissociation of quenched duplex DNA oligonucleotides, measured as fluorescence at 594 nm. To generate a functional strand incision and increase turn-over this assay is coupled to APE1.

[6] = molecular target: G/T mismatch-specific thymine DNA glycosylase (Homo sapiens) (UniProt Q13569);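 also: human TDG cleavage of quenched duplex DNA oligonucleotides coupled to APE1, strand release read as fluorescence at 594 nm, inhibition of TDG activity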
G/T mismatch-specific thymine DNA glycosylase (Homo sapiens), sequence (Q13569 whole entry): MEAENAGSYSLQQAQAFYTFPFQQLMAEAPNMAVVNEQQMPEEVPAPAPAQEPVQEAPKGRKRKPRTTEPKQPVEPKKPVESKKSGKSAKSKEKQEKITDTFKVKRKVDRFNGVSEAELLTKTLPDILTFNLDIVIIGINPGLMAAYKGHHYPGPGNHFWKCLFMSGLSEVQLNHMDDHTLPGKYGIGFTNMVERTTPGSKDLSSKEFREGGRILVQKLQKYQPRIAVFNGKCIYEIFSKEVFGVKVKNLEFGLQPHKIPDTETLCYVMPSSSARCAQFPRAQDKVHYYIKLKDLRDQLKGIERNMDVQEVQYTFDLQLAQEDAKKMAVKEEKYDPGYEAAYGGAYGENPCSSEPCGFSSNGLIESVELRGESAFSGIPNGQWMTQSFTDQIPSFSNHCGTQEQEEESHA
Description: Inhibition of TDG by quantifying inhibition of TDG-mediated cleavage and dissociation of quenched duplex DNA oligonucleotides, measured as fluorescence at 594 nm. To generate a functional strand incision and increase turn-over this assay is coupled to APE1.

N-glycosylase/DNA lyase (Homo sapiens), sequence (O15527 whole entry): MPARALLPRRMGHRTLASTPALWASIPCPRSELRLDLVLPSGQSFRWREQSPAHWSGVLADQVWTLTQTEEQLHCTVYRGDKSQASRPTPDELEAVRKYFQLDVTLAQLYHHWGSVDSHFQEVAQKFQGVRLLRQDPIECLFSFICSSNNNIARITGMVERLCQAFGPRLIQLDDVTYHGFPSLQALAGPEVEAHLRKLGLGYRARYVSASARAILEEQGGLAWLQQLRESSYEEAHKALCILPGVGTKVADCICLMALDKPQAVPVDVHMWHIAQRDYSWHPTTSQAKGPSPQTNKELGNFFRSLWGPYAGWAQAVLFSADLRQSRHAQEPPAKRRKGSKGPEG
Endonuclease 8-like 1 (Homo sapiens), sequence (Q96FI4 whole entry): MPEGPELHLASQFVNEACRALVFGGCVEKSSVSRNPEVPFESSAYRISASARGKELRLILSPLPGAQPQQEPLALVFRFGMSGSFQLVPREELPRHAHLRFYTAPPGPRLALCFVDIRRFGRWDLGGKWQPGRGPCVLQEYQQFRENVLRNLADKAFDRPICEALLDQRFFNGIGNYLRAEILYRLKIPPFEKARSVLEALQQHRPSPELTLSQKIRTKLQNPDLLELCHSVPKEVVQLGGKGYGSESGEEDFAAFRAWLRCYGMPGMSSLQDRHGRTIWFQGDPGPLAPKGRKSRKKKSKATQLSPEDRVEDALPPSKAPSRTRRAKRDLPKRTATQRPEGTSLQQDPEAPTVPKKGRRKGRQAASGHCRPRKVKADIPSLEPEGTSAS
Uracil-DNA glycosylase (Homo sapiens), sequence (P13051 whole entry): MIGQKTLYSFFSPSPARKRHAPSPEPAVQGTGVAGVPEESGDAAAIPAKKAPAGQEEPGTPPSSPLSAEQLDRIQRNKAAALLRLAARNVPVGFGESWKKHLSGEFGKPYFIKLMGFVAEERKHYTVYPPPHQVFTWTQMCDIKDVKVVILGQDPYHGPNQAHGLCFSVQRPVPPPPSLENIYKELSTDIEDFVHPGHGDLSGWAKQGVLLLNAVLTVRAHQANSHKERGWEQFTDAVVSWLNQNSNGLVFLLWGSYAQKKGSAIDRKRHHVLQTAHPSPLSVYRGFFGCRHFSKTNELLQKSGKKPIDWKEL

`COc1ccc(S(=O)(=O)N2C(=O)[C@@](c3ccccc3OC)(N3C[C@H](O)C[C@H]3C(=O)N(C)C)c3cc(Cl)ccc32)c(OC)c1` gave an inhibition [1] of -8.25%, an inhibition [2] of -0.258% and an inhibition [3] of 1.21%. It also gave an inhibition [4] of 2.68%.

With `O=C(Nc1c(-c2cccs2)nc2ccc(Cl)cn12)c1ccc(Cl)cc1` the inhibition [1] was 6.02%, the inhibition [2] was 13.8% and the inhibition [3] was -4.66%. The inhibition [4] was 0.454% and the inhibition [5] was -9.75%.

Molecule `CCOc1ccc(-n2c([C@@H](C)N(Cc3cccnc3)C(=O)Cc3ccc(F)c(C(F)(F)F)c3)nc3ncccc3c2=O)cc1` has an inhibition [1] of -4.17%, an inhibition [2] of 5.52% and an inhibition [3] of -5.43%. The inhibition [4] was 6.83%.

Molecule `O=C(NCCN1CCC(n2c(=O)[nH]c3cc(Cl)ccc32)CC1)c1ccc(F)cc1` has an inhibition [1] of 1.51%, an inhibition [2] of -1.74% and an inhibition [4] of 5.43%. It also gave an inhibition [6] of -0.00915%.

In the case of `N#Cc1c(N)nc(SCC(N)=O)c(C#N)c1-c1ccc(OCC2CC2)cc1`, the inhibition [1] is reported as 6.25%, the inhibition [2] is reported as 13.7% and the inhibition [4] is reported as 5.43%. It also gave an inhibition [5] of 6.64%.

`CCc1nn2c(C)cc(C)nc2c1Cc1ccc(-c2nnc(C3CCNCC3)o2)cc1` was tested, and the inhibition [1] was 2.26%, the inhibition [2] was -9.8% and the inhibition [4] was 6.02%. For the same molecule, the inhibition [6] was 1.84% and the inhibition [5] was -9.16%.

`CCCC(=O)C1CCN(c2ncnc3c2CN(C(=O)c2ccc(-c4ccccc4)cc2)CC3)CC1` was tested, and the inhibition [1] was -0.605%, the inhibition [2] was 12.1% and the inhibition [3] was -3.39%. For the same molecule, the inhibition [4] was 0.75% and the inhibition [5] was -4.93%.

In the case of `CC(C)Oc1ccc(-c2nc(-c3cccc4c3CC[C@@H]4NCCO)no2)cc1C#N`, the inhibition [1] is reported as 5.51%, the inhibition [2] is reported as 1.19% and the inhibition [4] is reported as -0.352%. The inhibition [6] was -9.98%.

For `CCCSc1nc(N[C@@H]2C[C@H]2c2ccc(F)c(F)c2)c2nnn([C@@H]3C[C@H](OCCO)[C@@H](O)[C@H]3O)c2n1`, the inhibition [2] was 11.4%, the inhibition [3] was -5.37% and the inhibition [4] was -9.1%. It also gave an inhibition [6] of -6.53% and an inhibition [5] of -6.84%.

For `O=c1[nH]c(=O)c2nc3ccccc3nc2[nH]1`, the inhibition [1] was 5.26%, the inhibition [2] was 14.4% and the inhibition [4] was 4.1%.

For `CN(CCN1CCC(OC(=O)Nc2ccccc2-c2ccccc2)CC1)C(=O)c1ccc(CN2CCC(C(N)=O)CC2)cc1`, the inhibition [1] was -7.72%, the inhibition [2] was 15.8% and the inhibition [4] was 3.95%. It also gave an inhibition [5] of -7.57%.

Molecule `CN1CCN(c2nc3cc(C(F)(F)F)ccc3n3cccc23)CC1` has an inhibition [1] of 16.2%, an inhibition [2] of 16.2% and an inhibition [3] of 0.522%. The inhibition [4] was -1.92% and the inhibition [5] was -6.12%.

`CC(C)CNc1nc(N2CCN(CC3CCCOC3)CC2)ncc1C(=O)NCc1ccccc1` (centres undefined) gave an inhibition [1] of -0.0955%, an inhibition [2] of -1.08% and an inhibition [3] of -1.17%. It also gave an inhibition [4] of 2.23%.

`CN(C(=O)c1ccccc1)c1cc(N(C)c2ccc3c(c2)CCc2ccc(C(=O)NCCN4CCOCC4)cc2C3=O)ccc1F` gave an inhibition [1] of -1.45%, an inhibition [2] of 3.6% and an inhibition [4] of -3.21%. The inhibition [5] was -2.17%.

Work on `CSCC[C@H](NC(=O)[C@H](Cc1ccc(O)cc1)NC(=O)[C@H](CCCCN)NC(=O)[C@@H](N)Cc1c[nH]c2ccccc12)C(=O)N[C@H](C(=O)N[C@H](CCSC)C(N)=O)C(C)C` yielded an inhibition [1] of -4.17%, an inhibition [2] of 21.2% and an inhibition [3] of -1.7%. For the same molecule, the inhibition [4] was 13.1%.

`Oc1c(CN2CCN(c3ccccn3)CC2)cc(Cl)c2cccnc12` was tested, and the inhibition [1] was 7.5%, the inhibition [2] was 39.3% and the inhibition [4] was -9.54%.

`CCCC(=O)C1(c2ccccc2)CCN(C(=O)[C@@H](Cc2ccc(OC)cc2)NC(=O)[C@@H](N)Cc2cncn2C)CC1` was tested, and the inhibition [1] was -1.37%, the inhibition [2] was -2.73% and the inhibition [3] was -7.56%. The inhibition [4] was 0.454% and the inhibition [5] was -8.78%.

For `Cc1c(Cc2ccc3ccccc3n2)c2cc(F)ccc2n1CC(=O)O`, the inhibition [1] was 30.2%, the inhibition [2] was -6.14% and the inhibition [4] was 9.88%.

Work on `CCc1nn(CCCN2CCN(c3cccc(Cl)c3)CC2)c(=O)n1CCOc1ccccc1` yielded an inhibition [1] of -4.48%, an inhibition [2] of 7.79% and an inhibition [3] of -5.52%. The inhibition [4] was -3.02%.
